# Test results as given in the supplement of paper PMC10307832.
# Assays:
# Test in all cases: relative viability (nuclei count vs DMSO), 5 days (fraction); higher = more cells survive
# NCI-H2228 = tested on: NCI-H2228
# Summary of the method: (§1)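 Relative viability was taken as the ratio of nuclei in treated wells to nuclei in vehicle wells. Lung cancer cell lines in 1536-well plates received compounds by pin tool one day after seeding, either one drug alone or a fixed anchor-drug dose plus five library-drug doses (not always all listed) in √10 steps. Nuclei were counted on 4× images after 5 days of treatment, and values are medians of duplicate plates.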
# NCI-H1793 = tested on: NCI-H1793
# Summary of the method: as §1
# NCI-H1666 = tested on: NCI-H1666
# Summary of the method: as §1
# LU99A = tested on: LU99A
# Summary of the method: as §1
# LOU-NH91 = tested on: LOU-NH91
# Summary of the method: as §1
# NCI-H1355 = tested on: NCI-H1355
# Summary of the method: as §1
# NCI-H460 = tested on: NCI-H460
# Summary of the method: as §1
# NCI-H23 = tested on: NCI-H23
# Summary of the method: as §1
# BEN = tested on: BEN
# Summary of the method: as §1
# SW 1573 = tested on: SW 1573
# Summary of the method: as §1
# LC-2-ad = tested on: LC-2-ad
# Summary of the method: as §1
# A-427 = tested on: A-427
# Summary of the method: as §1
# NCI-H650 = tested on: NCI-H650
# Summary of the method: as §1
# PC-3 [JPC-3] = tested on: PC-3 [JPC-3]
# Summary of the method: as §1
# LCLC-97TM1 = tested on: LCLC-97TM1
# Summary of the method: as §1
# NCI-H1993 = tested on: NCI-H1993
# Summary of the method: as §1
# NCI-H838 = tested on: NCI-H838
# Summary of the method: as §1
# NCI-H1915 = tested on: NCI-H1915
# Summary of the method: as §1
# NCI-H520 = tested on: NCI-H520
# Summary of the method: as §1
# RERF-LC-KJ = tested on: RERF-LC-KJ
# Summary of the method: as §1
# EKVX = tested on: EKVX
# Summary of the method: as §1
# NCI-H2347 = tested on: NCI-H2347
# Summary of the method: as §1
structure (smiles),measurement,setting,value
O=C(O)CCCCC(CCSCc1ccccc1)SCc1ccccc1 (centres undefined) [CPI-613] + Cc1nc(NC(=O)N2CCC[C@H]2C(N)=O)sc1-c1ccnc(C(C)(C)C(F)(F)F)c1 [Alpelisib] (partner 2 µM),relative viability,NCI-H2228; first compound 5 µM,0.799
same,relative viability,NCI-H2228; first compound 15.81 µM,0.6
same,relative viability,NCI-H2228; first compound 50 µM,0.547
same,relative viability,NCI-H2228; first compound 158.11 µM,0.344
same,relative viability,NCI-H2228; first compound 500 µM,0.0239
same,relative viability,NCI-H1793; first compound 5 µM,0.671
same,relative viability,NCI-H1793; first compound 50 µM,0.66
same,relative viability,NCI-H1793; first compound 158.11 µM,0.273
same,relative viability,NCI-H1793; first compound 500 µM,0.109
same,relative viability,NCI-H1666; first compound 5 µM,0.935
same,relative viability,NCI-H1666; first compound 15.81 µM,0.896
same,relative viability,NCI-H1666; first compound 50 µM,1.27
same,relative viability,NCI-H1666; first compound 158.11 µM,0.158
same,relative viability,NCI-H1666; first compound 500 µM,0.138
same,relative viability,LU99A; first compound 5 µM,0.535
same,relative viability,LU99A; first compound 15.81 µM,0.51
same,relative viability,LU99A; first compound 50 µM,0.461
same,relative viability,LU99A; first compound 158.11 µM,0.227
same,relative viability,LU99A; first compound 500 µM,0.0551
same,relative viability,LOU-NH91; first compound 5 µM,0.73
same,relative viability,LOU-NH91; first compound 15.81 µM,0.679
same,relative viability,LOU-NH91; first compound 50 µM,0.743
same,relative viability,LOU-NH91; first compound 158.11 µM,0.728
same,relative viability,LOU-NH91; first compound 500 µM,0.718
same,relative viability,NCI-H1355; first compound 5 µM,0.834
same,relative viability,NCI-H1355; first compound 15.81 µM,0.813
same,relative viability,NCI-H1355; first compound 50 µM,0.918
same,relative viability,NCI-H1355; first compound 158.11 µM,0.413
same,relative viability,NCI-H1355; first compound 500 µM,0.134
same,relative viability,NCI-H460; first compound 5 µM,0.426
same,relative viability,NCI-H460; first compound 15.81 µM,0.496
same,relative viability,NCI-H460; first compound 50 µM,0.433
same,relative viability,NCI-H460; first compound 158.11 µM,0.0466
same,relative viability,NCI-H460; first compound 500 µM,0.006
same,relative viability,NCI-H23; first compound 5 µM,0.684
same,relative viability,NCI-H23; first compound 15.81 µM,0.604
same,relative viability,NCI-H23; first compound 50 µM,0.685
same,relative viability,NCI-H23; first compound 158.11 µM,0.143
same,relative viability,NCI-H23; first compound 500 µM,0.0565
same,relative viability,BEN; first compound 5 µM,0.929
same,relative viability,BEN; first compound 15.81 µM,0.949
same,relative viability,BEN; first compound 50 µM,0.969
same,relative viability,BEN; first compound 158.11 µM,0.831
same,relative viability,BEN; first compound 500 µM,0.858
same,relative viability,SW 1573; first compound 5 µM,0.729
same,relative viability,SW 1573; first compound 15.81 µM,0.764
same,relative viability,SW 1573; first compound 50 µM,0.806
same,relative viability,SW 1573; first compound 158.11 µM,0.778
same,relative viability,SW 1573; first compound 500 µM,0.669
same,relative viability,LC-2-ad; first compound 5 µM,0.83
same,relative viability,LC-2-ad; first compound 15.81 µM,0.818
same,relative viability,LC-2-ad; first compound 50 µM,0.8
same,relative viability,LC-2-ad; first compound 158.11 µM,0.201
same,relative viability,LC-2-ad; first compound 500 µM,0.006
same,relative viability,A-427; first compound 5 µM,1.02
same,relative viability,A-427; first compound 15.81 µM,1.06
same,relative viability,A-427; first compound 50 µM,1.01
same,relative viability,A-427; first compound 158.11 µM,0.985
same,relative viability,A-427; first compound 500 µM,0.857
same,relative viability,NCI-H650; first compound 5 µM,1.18
same,relative viability,NCI-H650; first compound 15.81 µM,1.06
same,relative viability,NCI-H650; first compound 50 µM,1.06
same,relative viability,NCI-H650; first compound 158.11 µM,0.931
same,relative viability,NCI-H650; first compound 500 µM,0.892
same,relative viability,PC-3 [JPC-3]; first compound 5 µM,1.05
same,relative viability,PC-3 [JPC-3]; first compound 15.81 µM,0.943
same,relative viability,PC-3 [JPC-3]; first compound 50 µM,0.934
same,relative viability,PC-3 [JPC-3]; first compound 158.11 µM,0.921
same,relative viability,PC-3 [JPC-3]; first compound 500 µM,0.903
same,relative viability,LCLC-97TM1; first compound 5 µM,0.216
same,relative viability,LCLC-97TM1; first compound 15.81 µM,0.254
same,relative viability,LCLC-97TM1; first compound 50 µM,0.311
same,relative viability,LCLC-97TM1; first compound 158.11 µM,0.139
same,relative viability,LCLC-97TM1; first compound 500 µM,0.0641
same,relative viability,NCI-H1993; first compound 5 µM,0.709
same,relative viability,NCI-H1993; first compound 15.81 µM,0.721
same,relative viability,NCI-H1993; first compound 50 µM,0.752
same,relative viability,NCI-H1993; first compound 158.11 µM,0.485
same,relative viability,NCI-H1993; first compound 500 µM,0.432
same,relative viability,NCI-H838; first compound 5 µM,0.979
same,relative viability,NCI-H838; first compound 15.81 µM,0.922
same,relative viability,NCI-H838; first compound 50 µM,0.91
same,relative viability,NCI-H838; first compound 158.11 µM,0.589
same,relative viability,NCI-H838; first compound 500 µM,0.0842
same,relative viability,NCI-H1915; first compound 5 µM,1.12
same,relative viability,NCI-H1915; first compound 15.81 µM,1.04
same,relative viability,NCI-H1915; first compound 50 µM,1.01
same,relative viability,NCI-H1915; first compound 158.11 µM,0.925
same,relative viability,NCI-H1915; first compound 500 µM,0.926
same,relative viability,NCI-H520; first compound 5 µM,0.731
same,relative viability,NCI-H520; first compound 15.81 µM,1.01
same,relative viability,NCI-H520; first compound 50 µM,0.845
same,relative viability,NCI-H520; first compound 158.11 µM,0.403
same,relative viability,NCI-H520; first compound 500 µM,0.112
same,relative viability,RERF-LC-KJ; first compound 5 µM,0.748
same,relative viability,RERF-LC-KJ; first compound 15.81 µM,1.34
same,relative viability,RERF-LC-KJ; first compound 50 µM,0.757
same,relative viability,RERF-LC-KJ; first compound 158.11 µM,0.869
same,relative viability,RERF-LC-KJ; first compound 500 µM,0.733
same,relative viability,EKVX; first compound 5 µM,0.802
same,relative viability,EKVX; first compound 15.81 µM,0.814
same,relative viability,EKVX; first compound 50 µM,0.903
same,relative viability,EKVX; first compound 158.11 µM,0.857
same,relative viability,EKVX; first compound 500 µM,0.965
same,relative viability,NCI-H2347; first compound 5 µM,1.02
same,relative viability,NCI-H2347; first compound 15.81 µM,0.963
same,relative viability,NCI-H2347; first compound 50 µM,0.959
same,relative viability,NCI-H2347; first compound 158.11 µM,1.05
same,relative viability,NCI-H2347; first compound 500 µM,0.973
